Like-named read-outs stand apart in the source and are kept apart here.
Experiments:
[1] = tested on: HCT116; assay: MTS antiproliferative assay, HCT116 (with or without added metal ions); type: cell-based, human; conditions: for IC50: 96 h
Description: (§1) The cells were seeded in 96-well plates (Nunc) at a density of 3,500 cells/well (HCT116 and MCF-7) and 3,000 cells/well (NHDF) and incubated at 37° C for 24 h. The assay was performed following a 96 h incubation with varying concentrations of the compounds that were being tested. Then, 20 µL of CellTiter 96® AQueous One Solution-MTS (Promega) was added to each well (with 100 µL DMEM without phenol red) and incubated for 1 h at 37° C. The optical densities of the samples were analyzed at 490 nm using a multi-plate reader (Synergy 4, Bio Tek). Results were expressed as a percentage of the control and calculated as the inhibitory concentration (IC50) values (using GraphPad Prism 5). The IC50 parameter was defined as the compound concentration that was necessary to reduce the proliferation of cells to 50% of the untreated control. Each individual compound was tested in triplicate in a single experiment with each experiment being repeated three or four times.
(§2) The HCT116 and MCF-7 cells were seeded in 96-well plates (Nunc) at a density of 3,500 cells/well and incubated at 37° C for 24 h. The MTS assay was performed following a 96 h incubation with varying concentrations of the tested compounds. Additionally, a 20 µM solution of CuSO4, FeSO4 or FeCl3 was added into wells with the tested compounds. The results were expressed as a percentage of the control and calculated as the inhibitory concentration (IC50) values using GraphPad Prism 5. Each individual compound was tested in triplicate in a single experiment with each experiment being repeated three times.

[2] = tested on: MCF-7; assay: MTS antiproliferative assay, MCF-7 (with or without added metal ions); type: cell-based, human
Description: as §1, §2

[3] = tested on: CAT; assay: mRNA expression (Real-Time PCR) of CAT; type: cell-based, human; conditions: HCT116, TSC 1 µM, after the first 12 h
Description: (§3) The HCT116 cells were seeded in 3 cm Petri dishes (Nunc) at a density of 0.5·10^6 cells/well and incubated overnight. Next, the medium was removed and solutions of TSC (1 μM) and DOX (5 μM) were added. After 12 or 24 h, total RNA was isolated from the cells using TRIzol Reagent (Ambion) according to the manufacturer’s instructions. cDNA synthesis was performed with 5 μg of total RNA using a GoScript™ Reverse Transcriptase kit (Promega) and Oligo(dT)23 Primers (Sigma). The Real-Time PCR was performed with a CTX96 Touch™ Real-Time PCR Detection System (Biorad) in a 20 μL reaction volume. The reaction consisted of PowerUp™ SYBR® Green Master Mix (Applied Biosystems), a primer pair mix (0.5 μM each) and 1 μL of cDNA. All primer pair sequences were purchased from Sigma-Aldrich and are listed in Supplementary Table 2. The experiment was performed under the following conditions: initial denaturation at 95° C for 120 sec; followed by 40 denaturation cycles at 95° C, 15 sec; annealing (primer-specific temperature for 30 sec) and extension at 72° C for 60 sec. Data was analyzed based on a comparison of the expression of the target genes to a reference gene – β-actin, using the 2^–ΔΔCT method. The experiments were performed at least three times.

[4] = tested on: Ndrg1; assay: mRNA expression (Real-Time PCR) of Ndrg1; type: cell-based, human; conditions: HCT116, TSC 1 µM, 24 h
Description: as §3

[5] = tested on: cdc2; assay: Western blot of cdc2; type: cell-based, human; conditions: HCT116, 1 µM
Description: The HCT116 cells were seeded in 3 cm Petri dishes (Nunc) at a density of 0.5·10^6 cells/well and incubated overnight. The next day, solutions of TSC (1 μM) and DOX (5 μM) were added and the cells incubated for 24 or 48 h. Cells were harvested by trypsinization and washed with cold PBS. Next, the cells were centrifuged and suspended in an RIPA buffer (Thermo Scientific) containing Halt Protease Inhibitor Cocktail (Thermo Scientific), Halt Phosphatase Inhibitor Cocktail (Thermo Scientific) along with 0.5 M EDTA and lysed for 20 min on ice. Then, the lysates were sonicated, centrifuged at 10,000 rpm for 10 min at 4° C and the supernatants were collected for further analysis. The protein concentration was determined using a Micro BCA™ Protein Assay Kit (Thermo Scientific) according to the manufacturer’s instructions. Equal amounts of the proteins (20 μg) were electrophoresed on SDS-Page gels and transferred onto a nitrocellulose membranes. The membranes were blocked in 5% non-fat milk prepared in PBS containing 0.1% Tween-20 (TPBS) for 1 h. After blocking, the membranes were incubated with specific primary antibodies: cdc2 (#POH1, Cell Signaling), p21^Waf1/Cip1 (#12D1, Cell Signaling), p53 (#1C12, Cell Signaling) and β-Actin (#8H10D10, Cell Signaling) overnight at 4° C, then washed and incubated with horseradish peroxidase (HRP)-conjugated secondary antibodies for 1h at room temperature. All of antibodies were diluted 1:1000 in 5% milk in TPBS. Finally, the membranes were washed and incubated with a SuperSignal™ West Pico Chemiluminescent Substrate (Thermo Scientific). The chemiluminescence signals were captured using a ChemiDoc™ XRS+ System (BioRad). The experiments were performed at least three times. Densitometric analysis was performed using ImageJ 1.41 software (Wayne Rasband, National Institutes of Health, USA).

[6] = tested on: HCT116 cells; assay: Cell cycle assay (Muse Cell-Cycle Kit); type: cell-based, human; conditions: HCT116, TSC 1 µM, 48 h
Description: The HCT116 cells were seeded in 3 cm Petri dishes (Nunc) at a density of 0.25·10^6 cells/well and incubated at 37° C for 24 h. […] After a 48 h treatment, assays were performed using a Muse Cell-Cycle Kit (Millipore) according to the manufacturer’s instructions. Briefly, cells were collected, washed with cold PBS and centrifuged at 300 g. Then, the cells were fixed in ice cold 70% ethanol and stored at –20° C overnight. Afterwards, the cells were centrifuged and resuspended in 200 μL of Muse™ Cell Cycle Reagent and incubated for 30 min at room temperature in the dark. After staining, the cells were processed for cell cycle analysis using a Muse Cell Analyzer (Millipore). The experiments were performed at least three times.

[7] = tested on: calf-thymus DNA (CT-DNA); assay: Intercalation, absorption spectra with CT-DNA; type: binding; conditions: for % hypochromism / Changes in absorbance / Δε: bound to CT-DNA; for blue/red shift: wavelengths of maximum absorption, compound alone vs DNA-bound
Description: For the DNA binding studies, Calf-thymus DNA (CT-DNA) was purchased from Sigma Aldrich. The lyophilized CT-DNA was dissolved in 10 mM Tris-HCl, pH 7.9, mixed gently and left overnight at 4° C. The purity of the CT-DNA solution was determined by measuring the ratio of UV absorbance at 260 and 280 nm. […] Then, the concentration of CT-DNA was determined from the absorbance at 260 nm using an extinction coefficient of 6600 M^–1cm^–1. The tested TSC and DOX were dissolved in DMSO to a concentration of 8.35 mM, which was then used as the stock solution for preparing the various concentrations (25, 12.5, 6 and 3 µM) in 1 mL in 10 mM of Tris-HCl (pH 7.9). Afterwards, 18 µM CT-DNA was added to the prepared solutions, which were incubated for 1.5 h at 37° C with occasional vortexing. The absorption spectra were measured using a Hitachi U-2900 spectrophotometer in range of 200–500 nm. All absorption spectra were imported and compared in OriginPro 8.0.

[8] = tested on: HCT116; parameters: method as in PMID 25329549; conditions: 96 h incubation, MTS; cited from earlier work
[9] = tested on: NHDF; parameters: method as in PMID 25329549; conditions: 96 h incubation, MTS; cited from earlier work
[10] = tested on: MnSOD; assay: mRNA expression (Real-Time PCR) of MnSOD; type: cell-based, human; conditions: HCT116, TSC 1 µM, 12 or 24 h
Description: as §3

[11] = 20 µM CuSO4 added, read-out: Activity - IC50 HCT116+ Cu^2+
[12] = 20 µM FeCl3 added, read-out: Activity - IC50 HCT116+ Fe^3+
[13] = 96 h, 20 µM CuSO4 added, read-out: Activity - IC50 MCF-7+ Cu^2+
[14] = 96 h, 20 µM FeCl3 added, read-out: Activity - IC50 MCF-7+ Fe^3+
[15] = 96 h incubation, MTS, read-out: Activity - IC50 MCF-7

SMILES | IC50 [1, 11] | IC50 [1, 12] | improvement in cytotoxicity after interacting with Cu^2+ ([1]; HCT116 cells, 20 µM CuSO4) | IC50 [2, 13] | IC50 [2, 14] | IC50 [2, 15] | mRNA expression of CAT [3] | mRNA expression of Ndrg1 [4] | expression of cdc2 protein (densitometric analysis) [5] | cells in S phase [6] | % hypochromism [7] | Changes in absorbance [7] | Δε [7] | blue/red shift [7] | IC50 [8] | IC50 [9] | mRNA expression of MnSOD [10]
Oc1cccc2ccc(C=NNC(=S)N3CCN(c4cnccn4)CC3)nc12 [Compound 2b] | 4.17 ± 1.12 nM | 78.2 ± 14 nM | more than a ten-fold increase | 5.49 ± 1.19 nM | 35.8 ± 5.82 nM | 32.2 ± 6.85 nM | higher | strongest | increased the expression | 33–35% | 9.4% | hypochromism | 1888.9 M⁻¹ cm⁻¹ | 5 nm | 50.5 ± 28.1 nM | 12100 nM | 
S=C(NN=Cc1ccc2ccccc2n1)N1CCN(c2cnccn2)CC1 [Compound 1a] | 59.6 ± 6.45 nM | 96.9 ± 16.9 nM |  | 44.9 ± 3.77 nM | 273 ± 35.6 nM | 219 ± 15.1 nM |  |  |  |  | 22.0% | hypochromism | 3175.6 M⁻¹ cm⁻¹ | 1 nm | 87.7 ± 43.9 nM | 9440 nM | after the initial decline (for 12 h) there is a small increase
Oc1cccc2ccc(C=NNC(=S)N3CCOCC3)nc12 [Compound 2a] | 1.39 ± 0.44 nM | 7.57 ± 1.19 nM |  | 2.39 ± 0.42 nM | 8.83 ± 1.29 nM | 10.9 ± 2.85 nM |  |  |  | 33–35% | 15.7% | hypochromism | 1935.6 M⁻¹ cm⁻¹ | 10 nm | 3.84 ± 1.46 nM | 10600 nM | slight increase

Reference: paper PMC5915149, “The role of oxidative stress in activity of anticancer thiosemicarbazones” (Oncotarget, 2018)
